In article PMC6361752, “Construction of a Quantitative Structure Activity Relationship (QSAR) Model to Predict the Absorption of Cephalosporins in Zebrafish for Toxicity Study” (Frontiers in Pharmacology, 2019):

System: Zebrafish wild-type (WT) embryos
Assay: Absorption (internal concentration) of cephalosporins in zebrafish embryos by LC-MS/MS
Conditions: 6 hpf-3 dpf; for k-value (slope of the dose-internal concentration linear regression): zebrafish embryos, 0.28, 1.0 and 2.0 mM, higher k = more readily absorbed
Experimental: Zebrafish (Danio rerio) were fed at the Institute of Medicinal Biotechnology, Beijing Union Medical College, Beijing, China. […] Zebrafish wild-type (WT) embryos (n = 30) at 6 h post-fertilization (6 hpf) were used. After immersing the embryos in 2 mL of each drug solution (Drugs were dissolved in breeding water), they were incubated in a 20 mm dish for 3 days. […] The zebrafish bodies were collected at 3 days post-fertilization (dpf). The blank controls were zebrafish WT embryos (n = 30) that were incubated in breeding water.
Using a cell strainer (100 μm, BD-Falcon, United States), zebrafish bodies (30 in each dish) were washed five times with deionized water. Zebrafish bodies were triturated in 100 μL of deionized water, and then they were homogenized for 1 min. Zebrafish homogenate (50 μL) and internal standard (IS) working solution (10 μL) were individually transferred into a 1.5-mL microcentrifuge tube. Then, 200 μL of 1% formic acid-methanol solution was added into the tube. The samples were vortexed for 20 s. To precipitate proteins, the samples were centrifuged at 10,800 g for 10 min. The resultant supernatant (10 μL) was injected into LC-MS/MS for analysis.
The LC-MS/MS technique was performed by combining a 20A LC (Shimadzu, Kyoto, Japan) and a 6500 Q-Trap mass spectrometer (AB Sciex, Foster City, CA, United States), which was equipped with an electrospray ionization (ESI) source. Moreover, LC separations were performed on a reversed-phase ACE C18 column (5 cm × 2.1 mm ID, 3 μm particle size, Advanced Chromatography Technologies, Aberdeen, United Kingdom), which was attached to a corresponding guard column (1 cm × 2.1 mm ID, 3 μm particle size; Advanced Chromatography Technologies, United Kingdom). The mobile phase comprised of 5 mM ammonium formate (pH = 3.5) (solvent A) and acetonitrile (solvent B). The composition of the gradient was as follows: 2% solvent B for the first 0.1 min; 3.5 min, 90% solvent B; 6.0 min, 90% solvent B; 6.1 min, 2% solvent B; and 10 min, 2% solvent B. Mass spectrometric analysis was performed in a positive mode. Ion-spray voltage was set at 5000 V, and source temperature was kept fixed at 500°C. Curtain gas, gas 1, and gas 2 were 25, 40, and 40 psi, respectively. Multiple reaction monitoring (MRM) scan was used for the quantification of 19 analytes. In this scan, we determined the most intense product ion (PI) of each analyte. The entrance potential (EP) of all analytes was 10 eV. For each ion transition, dwell time and pause time were set to 30 and 5 ms, respectively. The Analyst 1.6.2 software (AB Sciex, Foster City, CA, United States) was used to perform data acquisition and analysis.
Dose-internal concentration curves were constructed by linear regression analysis. The slope of each linear regression was defined as k-value for each drug. […] The entire data set was split into the training set and test set by a random index, which was operated by DS4.0 software. The training set percentage was set at 80.
Using the aforementioned method, we analyzed the internal concentrations of cephalosporins in zebrafish. […] The calibration samples and administration samples were processed in a timely manner. The internal concentration of each cephalosporin in the zebrafish was calculated by using the corresponding calibration curve (Table 2). […] Dose-internal concentration curves were constructed by linear regression analysis (Figure 1). For each drug, the slope of each linear regression was defined as k-value. This parameter was used to evaluate the absorption capacity of each drug.

[1] = zebrafish embryos exposed to 0.28 mM drug solution
[2] = zebrafish embryos exposed to 1 mM drug solution
[3] = zebrafish embryos exposed to 2 mM drug solution

SMILES | Internal concentration [1] | Internal concentration [2] | Internal concentration [3] | k-value (slope of the dose-internal concentration linear regression) | other results
CC1=C(C(=O)O)N2C(=O)[C@@H](NC(=O)[C@H](N)C3=CCC=CC3)[C@H]2SC1 [Cefradine] | 3.15 mM × 10^-5 | 8.93 mM × 10^-5 | 19.89 mM × 10^-5 | 9.8110 | k-value (slope of the dose-internal concentration linear regression) (listed as cefradine): > 5
CN(C)CCn1nnnc1SCC1=C(C(=O)O)N2C(=O)[C@@H](NC(=O)Cc3csc(N)n3)[C@H]2SC1 [Cefotiam] | 0.25 mM × 10^-5 | 1.31 mM × 10^-5 | 3.73 mM × 10^-5 | 2.0488 | k-value (slope of the dose-internal concentration linear regression) (listed as cefotiam): < 5
CO[C@@]1(NC(=O)CSC(F)F)C(=O)N2C(C(=O)O)=C(CSc3nnnn3CCO)CO[C@@H]21 [Flomoxef] | 1.07 mM × 10^-5 | 8.30 mM × 10^-5 | 11.54 mM × 10^-5 | 5.9111 | k-value (slope of the dose-internal concentration linear regression) (listed as flomoxef): > 5
CO/N=C(\C(=O)N[C@@H]1C(=O)N2C(C(=O)O)=C(COC(N)=O)CS[C@H]12)c1ccco1 [Cefuroxime] | 0.68 mM × 10^-5 | 1.55 mM × 10^-5 | 4.66 mM × 10^-5 | 2.3643 | k-value (slope of the dose-internal concentration linear regression) (listed as cefuroxime): < 5
CC1=C(C(=O)O)N2C(=O)[C@@H](NC(=O)[C@H](N)c3ccccc3)[C@H]2SC1 [Cefalexin] | 1.01 mM × 10^-5 | 5.48 mM × 10^-5 | 16.83 mM × 10^-5 | 9.3280 | 
CO/N=C(\C(=O)N[C@@H]1C(=O)N2C(C(=O)O)=C(CSc3nc(C)c(CC(=O)O)s3)CS[C@H]12)c1csc(N)n1 [Cefodizime] | 0.51 mM × 10^-5 | 0.94 mM × 10^-5 | 3.47 mM × 10^-5 | 1.7709 | k-value (slope of the dose-internal concentration linear regression) (listed as cefodizime): < 5
CO/N=C(\C(=O)N[C@@H]1C(=O)N2C(C(=O)O)=C(CSc3nnnn3C)CS[C@H]12)c1csc(N)n1 [Cefmenoxime] | 0.00 mM × 10^-5 | 0.71 mM × 10^-5 | 1.14 mM × 10^-5 | 0.6493 | k-value (slope of the dose-internal concentration linear regression) (listed as cefmenoxime): < 5
CC(=O)OCC1=C(C(=O)O)N2C(=O)[C@@H](NC(=O)CSC(=NC(C)C)NC(C)C)[C@H]2SC1 [Cefathiamidine] | 0.49 mM × 10^-5 | 1.29 mM × 10^-5 | 1.63 mM × 10^-5 | 0.6439 | k-value (slope of the dose-internal concentration linear regression) (listed as cefathiamidine): < 5
CO[C@@]1(NC(=O)Cc2cccs2)C(=O)N2C(C(=O)O)=C(COC(N)=O)CS[C@@H]21 [Cefoxitin] | 2.22 mM × 10^-5 | 12.73 mM × 10^-5 | 18.39 mM × 10^-5 | 9.1638 | k-value (slope of the dose-internal concentration linear regression) (listed as cefoxitin): > 5
CCN1CCN(C(=O)N[C@@H](C(=O)N[C@@H]2C(=O)N3C(C(=O)O)=C(CSc4nnnn4C)CS[C@H]23)c2ccc(O)cc2)C(=O)C1=O [Cefoperazone] | 1.30 mM × 10^-5 | 5.75 mM × 10^-5 | 12.47 mM × 10^-5 | 6.5063 | k-value (slope of the dose-internal concentration linear regression) (listed as cefoperazone): > 5
CO/N=C(\C(=O)N[C@@H]1C(=O)N2C(C(=O)O)=CCS[C@H]12)c1csc(N)n1 [Ceftizoxime] | 1.17 mM × 10^-5 | 3.70 mM × 10^-5 | 13.15 mM × 10^-5 | 7.1156 | k-value (slope of the dose-internal concentration linear regression) (listed as ceftizoxime): > 5
O=C(Cn1cnnn1)N[C@@H]1C(=O)N2C(C(=O)O)=C(CSc3nncs3)CS[C@H]12 [Ceftezole] | 3.95 mM × 10^-5 | 7.08 mM × 10^-5 | 12.96 mM × 10^-5 | 5.2798 | k-value (slope of the dose-internal concentration linear regression) (listed as ceftezole): > 5
Cc1nnc(SCC2=C(C(=O)O)N3C(=O)[C@@H](NC(=O)Cn4cnnn4)[C@H]3SC2)s1 [Cefazolin] | 8.56 mM × 10^-5 | 13.95 mM × 10^-5 | 14.19 mM × 10^-5 | 3.0851 | k-value (slope of the dose-internal concentration linear regression) (listed as cefazolin): < 5
CO/N=C(\C(=O)N[C@@H]1C(=O)N2C(C(=O)O)=C(COC(C)=O)CS[C@H]12)c1csc(N)n1 [Cefotaxime] | 0.27 mM × 10^-5 | 0.75 mM × 10^-5 | 0.82 mM × 10^-5 |  | 
CC1=C(C(=O)O)N2C(=O)[C@@H](NC(=O)[C@H](N)c3ccc(O)cc3)[C@H]2SC1 [Cefadroxil] | 1.32 mM × 10^-5 | 7.07 mM × 10^-5 | 12.55 mM × 10^-5 | 6.4617 | k-value (slope of the dose-internal concentration linear regression) (listed as cefadroxil): > 5
CC(C)(O/N=C(\C(=O)N[C@@H]1C(=O)N2C(C(=O)[O-])=C(C[n+]3ccccc3)CS[C@H]12)c1csc(N)n1)C(=O)O [Ceftazidime] | 0.00 mM × 10^-5 | 2.45 mM × 10^-5 | 5.47 mM × 10^-5 | 3.1702 | k-value (slope of the dose-internal concentration linear regression) (listed as ceftazidime): < 5
N[C@@H](C(=O)N[C@@H]1C(=O)N2C(C(=O)O)=C(Cl)CS[C@H]12)c1ccccc1 [Cefaclor] | 1.01 mM × 10^-5 | 3.43 mM × 10^-5 | 9.49 mM × 10^-5 | 5.0027 | k-value (slope of the dose-internal concentration linear regression) (listed as cefaclor): > 5
CO/N=C(\C(=O)N[C@@H]1C(=O)N2C(C(=O)[O-])=C(C[n+]3cccc4c3CCC4)CS[C@H]12)c1csc(N)n1 [Cefpirome] | 0.21 mM × 10^-5 | 0.86 mM × 10^-5 | 1.67 mM × 10^-5 | < 5 | 
